# Results from patent US11135223B2, “Compositions and methods for inhibiting Dkk-1” (YALE UNIVERSITY, priority 2016, dated 2021).
# System: leukocyte-platelet aggregate (CD45+CD41+ population)
# Test: Leukocyte-platelet aggregate (LPA) formation and PSGL-1 expression in peripheral blood, L. major infection
# Assay type: in vivo, mice
# From the text: FIG. 12, comprising FIG. 12A through FIG. 12G, depicts results of experiments showing regulation of LPA formation by Dkk-1. FIG. 12A depicts AMNIS analysis of peripheral blood from 6-week old C57BL/6 male mice. FIG. 12B depicts flow cytometry analysis of the basal LPA population (CD45^+CD41^+) Dkk-1^d/d mice and their wildtype littermate controls. B-cell and CD4 T cell among CD45^+CD41^+ cells were monitored at the indicated time points in Dkk-1^d/d mice and their wildtype littermate controls challenged with 30 μg HDM extract/mouse. FIG. 12C depicts flow cytometry analysis of LPA formation in total CD45^+ cells, CD4 T cells, and neutrophils, in mice injected with Dkk-1 inhibitor (n=5) or DMSO vehicle (n=5) 24 hours prior to infection with L. major. FIG. 12D depicts flow cytometry analysis of peripheral blood at given time points for LPA formation in nine-week old C57BL/6 mice (n=5) injected with 300 ng of Dkk-1. […] Mean fluorescence intensity was normalized to unchallenged C57BL/6 mice. […] Normalized MFI for ICAM-1 expression and the percentages of LFA-1 high cells were measured by flow cytometry following injection of 300 ng of Dkk-1 intraperitoneally. […]
# Human platelets were isolated as described from healthy volunteers (Tang et al., 2011, J Clin Invest 121:4462-76). […] Samples were analyzed by flow cytometry within 4 to 6 hours. […]
compound,measurement,setting,value
"NCC1CCN(c2nccc(-c3ccc4ccccc4c3)n2)CC1 [WAY-262611, (1-(4-(naphthalen-2-yl)pyrimidin-2-yl)piperidin-4-yl)methanamine]",PSGL-1 expression on leukocytes,"L. major infection, peripheral blood",blocked the increase
same,elevation of LPA formation,"pretreatment 24 h prior to infection with L. major, 4 h post-infection",reduced
